Test results reported in patent US20100331424A1, “Use of Axomadol for Treatment of Arthrosis Pain” (Gruenenthal GmbH, priority 2007, published 2010).
Where a name gives a salt, the structure may show the parent alone.

Experiments:
[1] = tested on: moderate to severe chronic pain as a result of osteoarthritis (OA) of the knee; assay: Clinical Study B: axomadol vs oxycodone CR and placebo, 4 weeks, patients with OA of the knee; assay type: in vivo; conditions: for p of primary endpoint compared to the placebo group: per protocol set
Description: In this study, patients with OA of the knee were divided into 4 groups. Two of the patient groups received different doses of axomadol hydrochloride: 100 mg and 150 mg based on the free base, twice daily in each case after a titration period of 2 weeks, in which the dose of axomadol was increased on a weekly basis. […] A further group was given a placebo twice daily.

[2] = tested on: moderate to severe chronic pain as a result of osteoarthritis (OA) of the hip or knee; assay: Clinical Study A: axomadol vs tramadol and placebo, 4 weeks, patients with OA of the hip or knee; assay type: in vivo; conditions: for Decrease in pain intensity compared to baseline: full analysis set, day 29, axomadol 44, 66, 110 mg bid, tramadol 100 mg bid
Description: (§1) Two studies with a respective treatment period of 4 weeks were conducted to determine the efficacy and safety of axomadol in patients with moderate to severe chronic pain as a result of osteoarthritis (arthrosis, OA) of functional class I-III.
In this study, patients with OA of the hip or knee were divided into 5 groups.

[3] = tested on: moderate to severe chronic pain as a result of osteoarthritis (arthrosis, OA) of functional class I-III; assay: Both clinical studies (A and B), statements made for both; assay type: in vivo, patients; conditions: after 4 weeks
Description: as §1

[4] = tested on: CFA-hyperalgesia (CFA-HA); assay: Antihyperalgesic effect in the chronic inflammation pain model (Complete Freund's Adjuvant, electronic von Frey); assay type: in vivo, Sprague Dawley rats
Description: The test to determine the antihyperalgesic effect of axomadol in chronic inflammation pain was conducted on rats in the Complete Freund's Adjuvant animal model (CFA).
A model for chronic inflammation represents the monoarthritis triggered by the Complete Freund's Adjuvant (CFA). By injecting a small quantity of CFA (100 μg M. tuberculosis) into the back paw a local inflammatory reaction restricted in time to 2-4 weeks occurred.
Sprague Dawley rats from a commercial breeder (Janvier, Belgium) having a weight of 140-160 g were used as test animals. The CFA-HA was induced in rats by subplantar injection of CFA (100 μl of the 1 mg/ml mycobacteria (heat-killed M. tuberculosis)/oil suspension (IFA; Difco)) into the back paw (ipsilaterally). The injection day was defined as day 0 (d 0).
Hyperalgesia to a mechanical tactile stimulus was detected by means of an electronic von Frey measuring instrument (Somedic Electronic von Frey System, Somedic Sales AB, Horby, Sweden). The paw was stimulated by subplantar application. To quantify the sensitivity of both the ipsi- and the contralateral paw to the mechanical stimulus, the paw pull-away threshold was given in grams of applied pressure. The median was formed from the four measured values per paw. The pull-away threshold of the ipsi- and contralateral paw was determined on day 1 after CFA injection before (=initial value) and at different times (15, 20 and 60 minutes) after substance dose (measured value). The efficacy of a substance was calculated as % inhibition of hyperalgesia as follows:
% inhibition of HA=(1−HA measured value/HA initial value)×100
HA initial value=pull away threshold contralateral−pull away threshold ipsilateral before substance dose
HA measured value=pull away threshold contralateral−pull away threshold ipsilateral after substance dose
In total, 10 rats were used in each test animal group. The mean±SEM was calculated from the medians of the individual animals. The significance calculation was conducted using the two-factor analysis of the variance (ANOVA) for repeated measurements. In the case of a significant treatment effect, a comparison in pairs was conducted at different measurement times by a Fisher's significance test, followed by a post hoc Dunnett test. The results were assessed as statistically significant at p<0.05.
In order to determine the maximum efficacy, the substance was administered intravenously (IV) up to the maximum possible dose.

With COc1cccc([C@@]2(O)C[C@H](O)CC[C@@H]2CN(C)C)c1 (racemic) [Axomadol, (1RS,3RS,6RS)-6-dimethylaminomethyl-1-(3-methoxyphenyl)-cyclohexane-1,3-diol] the “Frequency of undesirable side-effects which caused patients to discontinue the study” value ([1]; 100 mg group) was 16.3%, the “Frequency of undesirable side-effects which caused patients to discontinue the study” value ([1]; 150 mg group) was 17.7% and the “Severity of undesirable effects” value ([1]; axomadol groups 100 mg and 150 mg twice daily) was “slight to moderate”. The “p of average pain intensity of the last 24 hours on day 29 compared to the placebo” value ([1]; full analysis set, 100 mg twice daily) was 0.0190, the “p of primary endpoint compared to the placebo group” value ([1]; 100 mg twice daily group) was 0.0068 and the “p of primary endpoint compared to the placebo group” value ([1]; 150 mg twice daily group) was 0.0079. The “Decrease in pain intensity compared to baseline” value [2] was “clinically relevant decrease in pain intensity”, the “p of decrease in pain intensity compared to the placebo group” value ([2]; per protocol set, 110 mg twice daily) was < 0.05 and the “Decrease in pain intensity, dose dependence” value ([2]; per protocol set, axomadol 44, 66, 110 mg twice daily) was “higher efficacy at the higher dose”. The “Decrease in pain intensity” value [3] was “clinically significant decrease in pain intensity”, the “Analgesic efficacy compared to morphine, oxycodone and tramadol (in words)” value ([4]; chronic inflammation pain model) was “better analgesic efficacy” and the “Effect on CFA-induced hyperalgesia (in words)” value ([4]; rat) was “significantly reduces”.

COc1cccc([C@@]2(O)C[C@H](O)CC[C@@H]2CN(C)C)c1 (racemic) [Axomadol-HCl, (1RS,3RS,6RS)-6-dimethylaminomethyl-1-(3-methoxyphenyl)-cyclohexane-1,3-diol] was tested, and the “Instance of the most frequent undesirable effects vs every other treatment group” value ([2]; 110 mg twice daily) was “higher”, the “Dose from which overlap with antinociceptive effect (comparators: also side-effects that impair measurement)” value (“Dose from which overlap” for short) ([4]; rat, IV) was “From 14.7 mg/kg: overlap with antinociceptive” and the “% Inhibition of HA” value ([4]; rat, IV, dose 2.15 mg/kg) was 16%. For the same compound, the “% Inhibition of HA” value ([4]; rat, IV, dose 10.0 mg/kg) was 40%, the “% Inhibition of HA” value ([4]; rat, IV, dose 14.7 mg/kg) was 9% and the “Antihyperalgesic effect at higher doses” value ([4]; rat, IV, doses higher than 10 mg/kg) was 9%.

With CN1CC[C@]23c4c5ccc(O)c4O[C@H]2[C@@H](O)C=C[C@H]3[C@H]1C5 [Morphine] the “Dose from which overlap” value ([4]; rat, IV) was “From 4.64 mg/kg: overlap with antinociceptive”, the “% Inhibition of HA” value ([4]; rat, IV, dose 0.46 mg/kg) was 8% and the “% Inhibition of HA” value ([4]; rat, IV, dose 1.00 mg/kg) was 20%. For the same compound, the “% Inhibition of HA” value ([4]; rat, IV, dose 2.15 mg/kg) was 27%.

In the case of COc1ccc2c3c1O[C@H]1C(=O)CC[C@@]4(O)[C@@H](C2)N(C)CC[C@]314 [Oxycodone], the “p of primary endpoint compared to the placebo group” value ([1]; oxycodone CR 20 mg twice daily group) is reported as 0.0154, the “Dose from which overlap” value ([4]; rat, IV) is reported as “From 0.681 mg/kg: overlap with antinociceptive” and the “% Inhibition of HA” value ([4]; rat, IV, dose 0.215 mg/kg) is reported as 18%. For the same compound, the “% Inhibition of HA” value ([4]; rat, IV, dose 0.681 mg/kg) was 26%.

In the case of COc1cccc(C2(O)CCCCC2CN(C)C)c1 (stereo not shown) [Tramadol, reference compound], the “Decrease in pain intensity compared to baseline” value [2] is reported as “not observed” and the “Dose from which overlap” value ([4]; rat, IV) is reported as “From 4.64 mg/kg: overlap with antinociceptive”.
